From ChEMBL document CHEMBL4699597, “Tabernaesines A-I, Cytotoxic Aspidosperma-Aspidosperma-Type Bisindole Alkaloids from Tabernaemontana pachysiphon” (J Nat Prod, 2020)

Columns and labels:
Assay type in all cases: functional, cell-based
[1] = test system: A549; assay: Cytotoxicity against human A549 cells assessed as reduction in cell viability after 72 hrs by MTT assay; conditions: A549, 72 h
[2] = test system: HepG2; assay: Cytotoxicity against human HepG2 cells assessed as reduction in cell viability after 72 hrs by MTT assay; conditions: HepG2, 72 h
[3] = test system: SW480; assay: Cytotoxicity against human SW480 cells assessed as reduction in cell viability after 72 hrs by MTT assay; conditions: SW480, 72 h
[4] = test system: MDA-MB-231; assay: Cytotoxicity against human MDA-MB-231 cells assessed as reduction in cell viability after 72 hrs by MTT assay; conditions: MDA-MB-231, 72 h
[5] = test system: SK-MEL-28; assay: Cytotoxicity against human SK-MEL-28 cells assessed as reduction in cell viability after 72 hrs by MTT assay; conditions: SK-MEL-28, 72 h
[6] = test system: T47D; assay: Cytotoxicity against human T47D cells assessed as reduction in cell viability after 72 hrs by MTT assay

SMILES | IC50 [1] [µM] | IC50 [2] [µM] | IC50 [3] [µM] | IC50 [4] [µM] | IC50 [5] [µM] | IC50 [6] [µM]
CCN(CC)Cc1ccc2c(c1O)N1C[C@]3(C[C@@H]4C[C@]56CCO[C@H]5CCN5CC[C@@]2([C@@H]56)[C@]41O)CN1CC[C@]24C(=C(C(=O)OC)C[C@@]5(CCO[C@@H]35)[C@H]12)Nc1ccccc14 | > 10 | 7.4 | > 10 | > 10 | 8.3 | > 10
COC(=O)C1=C2Nc3ccccc3[C@@]23CCN2C[C@]4(C[C@@H]5C[C@]67CC(=O)O[C@H]6CCN6CC[C@@]8(c9cccc(OC)c9N(C4)[C@@]58O)[C@@H]67)[C@@H]4OCC[C@]4(C1)[C@H]23 | > 10 | > 10 | > 10 | > 10 | > 10 | > 10
CC[C@@]12C[C@H]3C[C@@]4(CN5c6ccccc6[C@@]6(CCN(C[C@H]7O[C@H]71)[C@@H]26)[C@H]35)C(=O)N1CC[C@]23C(=C(C(=O)OC)C[C@@]5(CCO[C@@H]45)[C@H]12)Nc1ccccc13 | > 10 | 6.3 | 9.8 | > 10 | 6.8 | 9.8
CCN(CC)Cc1ccc2c(c1O)N1C[C@]3(C[C@@H]4C[C@]56CC(=O)O[C@H]5CCN5CC[C@@]2([C@@H]56)[C@]41O)CN1CC[C@]24C(=C(C(=O)OC)C[C@@]5(CCO[C@@H]35)[C@H]12)Nc1ccccc14 | > 10 | > 10 | > 10 | > 10 | > 10 | > 10
CC[C@@]12C[C@H]3C[C@]4(CN5CC[C@]67C(=C(C(=O)OC)C[C@@]8(CCO[C@@H]48)[C@H]56)Nc4ccccc47)CN4c5ccccc5[C@@]5(CCN(C[C@H]6O[C@H]61)[C@@H]25)[C@]34O | > 10 | 9.6 | 7.2 | > 10 | 6.4 | 5.5
CC[C@@]12C[C@H]3C[C@@]4(CN5CC[C@]67C(=C(C(=O)OC)C[C@@]8(CCO[C@@H]48)[C@H]56)Nc4ccccc47)CN4c5ccccc5[C@@]5(CCN(C[C@H]6O[C@H]61)[C@@H]25)[C@H]34 | > 10 | > 10 | > 10 | > 10 | > 10 | > 10
COC(=O)C1=C2Nc3ccccc3[C@@]23CCN2CC(CC4=C[C@@]5(CCO)CC(C(=O)OC)=C6Nc7ccccc7[C@@]67CCN(C4)[C@@H]57)=C[C@@](CCO)(C1)[C@H]23 | > 10 | > 10 | > 10 | > 10 | > 10 | > 10
COC(=O)C1=C2Nc3ccccc3[C@@]23CCN2C[C@]4(C[C@@H]5C[C@]67CC(=O)O[C@H]6CCN6CC[C@@]8(c9cccc(O)c9N(C4)[C@@]58O)[C@@H]67)[C@@H]4OCC[C@]4(C1)[C@H]23 | > 10 | > 10 | > 10 | > 10 | > 10 | > 10
CC[C@@]12C[C@H]3C[C@]4(CN5CC[C@]67C(=C(C(=O)OC)C[C@@]8(CCO[C@@H]48)[C@H]56)Nc4ccccc47)CN4c5ccccc5[C@@]5(CCN(C[C@H](O)[C@H]1O)[C@@H]25)[C@H]34 | > 10 | 2.5 | 7.8 | > 10 | 6.7 | 8.7
CC[C@@]12C[C@H]3C[C@@]4(CN5CC[C@]67C(=C(C(=O)OC)C[C@@]8(CCO[C@@H]48)[C@H]56)Nc4ccccc47)CN4c5ccccc5[C@@]5(CCN(C[C@H](O)[C@H]1O)[C@@H]25)[C@]34O | > 10 | > 10 | > 10 | > 10 | > 10 | > 10
COC(=O)C1=C2Nc3ccccc3[C@@]23CCN2C[C@]4(C[C@@H]5C[C@]67CCO[C@H]6CCN6CC[C@@]8(c9cccc(OC)c9N(C4)[C@@]58O)[C@@H]67)[C@@H]4OCC[C@]4(C1)[C@H]23 | > 10 | > 10 | > 10 | > 10 | > 10 | > 10
CC[C@@]12C[C@]3(CC4=C5N(C3)c3ccccc3[C@@]53CCN5C[C@H]6O[C@H]6[C@@](CC)(C4)[C@H]53)C3=Nc4ccccc4[C@@]34CCN(C[C@H]3O[C@H]31)[C@@H]24 | > 10 | > 10 | > 10 | > 10 | > 10 | > 10
CC[C@@]12C[C@H]3C[C@]4(CN5CC[C@]67C(=C(C(=O)OC)C[C@@]8(CCO[C@@H]48)[C@H]56)Nc4ccccc47)CN4c5ccccc5[C@@]5(CCN(C[C@H]6O[C@H]61)[C@@H]25)[C@H]34 | > 10 | > 10 | > 10 | > 10 | > 10 | > 10
CC[C@@]12C[C@H]3C[C@@]4(CN5CC[C@]67C(=C(C(=O)OC)C[C@@]8(CCO[C@@H]48)[C@H]56)Nc4ccccc47)CN4c5ccccc5[C@@]5(CCN(C[C@H](O)[C@H]1O)[C@@H]25)[C@H]34 | > 10 | > 10 | > 10 | > 10 | > 10 | > 10
CC[C@@]12C[C@H]3C[C@]4(CN5CC[C@]67C(=C(C(=O)OC)C[C@@]8(CCO[C@@H]48)[C@H]56)Nc4ccccc47)CN4c5ccccc5[C@@]5(CCN(C[C@H](O)[C@H]1O)[C@@H]25)[C@]34O | > 10 | > 10 | > 10 | > 10 | > 10 | 9.5
CC[C@@]12C[C@H]3C[C@@]4(CN5CC[C@]67C(=C(C(=O)OC)C[C@@]8(CCO[C@@H]48)[C@H]56)Nc4ccccc47)CN4c5ccccc5[C@@]5(CCN(C[C@H]6O[C@H]61)[C@@H]25)[C@]34O | > 10 | > 10 | > 10 | 8.3 | > 10 | > 10
CC[C@@]12CC3=C4N(C[C@]5(C3)CN3CC[C@]67C(=C(C(=O)OC)C[C@@]8(CCO[C@@H]58)[C@H]36)Nc3ccccc37)c3ccccc3[C@@]43CCN(C[C@H]4O[C@H]41)[C@@H]23 | > 10 | > 10 | > 10 | > 10 | > 10 | > 10
COC(=O)C1=C2Nc3ccccc3[C@@]23CCN2C[C@]4(C[C@@H]5C[C@]67CC(=O)O[C@H]6CCN6CC[C@@]8(c9cccc(OC)c9N(C4)[C@@H]58)[C@@H]67)[C@@H]4OCC[C@]4(C1)[C@H]23 [DEOXYVOBSTUSINE LACTONE] | > 10 | > 10 | > 10 | > 10 | > 10 | > 10
CC[C@]1(O)C[C@@H]2CN(CCc3c([nH]c4ccccc34)[C@@](C(=O)OC)(c3cc4c(cc3OC)N(C)[C@H]3[C@@](O)(C(=O)OC)[C@H](OC(C)=O)[C@]5(CC)C=CCN6CC[C@]43[C@@H]65)C2)C1 [VINBLASTINE] | 0.021 | 0.0093 | 0.0325 | 0.0425 | 0.0733 | 0.0103
